Test results from US9228998B2, “Drug monitoring methods using the promyelocytic leukemia protein as a redox sensor” (Institut National de la Sante et de la Recherche Medicale …, priority 2010, dated 2016).
Entries after “also recorded” stand apart in the source; their conditions may differ.

Experiments:
PML NBs = target: T1, PML NBs (Homo sapiens, UniProt P29590); experiment: PML NB labelling in in situ nuclear matrix preparations (immunofluorescence); type: cell-based; conditions: nuclear matrix prepared in situ, exposure to DTT
T1 construct: endogenous in cells
T1 sequence (P29590 1-882): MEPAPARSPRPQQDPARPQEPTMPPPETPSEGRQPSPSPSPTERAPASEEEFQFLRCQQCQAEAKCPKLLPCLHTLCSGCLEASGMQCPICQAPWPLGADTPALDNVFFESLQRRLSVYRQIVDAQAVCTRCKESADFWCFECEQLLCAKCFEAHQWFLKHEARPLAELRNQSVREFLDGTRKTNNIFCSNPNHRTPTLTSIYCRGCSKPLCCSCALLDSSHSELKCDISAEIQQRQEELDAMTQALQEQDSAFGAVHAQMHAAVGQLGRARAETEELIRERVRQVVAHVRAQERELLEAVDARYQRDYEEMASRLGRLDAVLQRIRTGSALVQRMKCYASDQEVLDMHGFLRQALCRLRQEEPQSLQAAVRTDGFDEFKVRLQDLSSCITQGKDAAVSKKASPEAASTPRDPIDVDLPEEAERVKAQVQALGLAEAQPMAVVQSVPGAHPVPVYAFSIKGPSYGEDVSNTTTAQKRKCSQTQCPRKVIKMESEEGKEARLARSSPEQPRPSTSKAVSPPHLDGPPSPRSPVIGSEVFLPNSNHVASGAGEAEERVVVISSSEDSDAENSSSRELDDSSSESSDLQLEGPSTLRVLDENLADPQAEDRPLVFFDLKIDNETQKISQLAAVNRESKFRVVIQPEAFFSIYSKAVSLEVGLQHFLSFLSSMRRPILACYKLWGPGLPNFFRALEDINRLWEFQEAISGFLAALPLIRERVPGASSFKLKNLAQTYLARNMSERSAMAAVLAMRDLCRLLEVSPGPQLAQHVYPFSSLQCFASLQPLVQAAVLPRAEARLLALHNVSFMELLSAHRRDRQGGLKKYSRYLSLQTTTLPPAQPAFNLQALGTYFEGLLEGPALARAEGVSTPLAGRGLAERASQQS
Procedure: (§1) Immunofluorescence, electronic microscopy and antibodies were previously described^15. In situ nuclear matrix preparations were prepared as described^1. Confocal analyses were performed on a LSM510 Meta laser microscope (Carl Zeiss MicroImaging, Inc.) with a plan apochromat 63X N.A.1.4 oil immersion objective and increased resolution images were obtained with deconvolution software (Autodeblur, Image Quant) using blind iterative algorithms.
(§2) Intermolecular disulfide bonds were previously implicated in stabilization of the nuclear matrix. […] We then compared total and nuclear matrix extracts from transiently transfected CHO cells under non-reducing conditions and observed that the matrix fraction was dramatically enriched in covalent PML dimers.
The matrix-associated PML fraction is hypersumoylated. Conversely, deletion of the coiled-coil of PML abrogates its association to the nuclear matrix, NB formation, and sumoylation. Thus, whereas As2O3 induces PML targeting to the matrix and NB formation independently of sumoylation, matrix association contributes to basal or As2O3-enhanced PML sumoylation. We therefore questioned how As2O3 could promote transfer from soluble diffuse nuclear PML to insoluble, matrix-associated NBs. As2O3 controls protein phosphorylation and ROS production. […]

lamin B = lamin B staining in in situ nuclear matrix preparations; type: cell-based; conditions: nuclear matrix prepared in situ, exposure to DTT
Procedure: as §1
The mouse anti-GFP antibody was from Roche Applied Science; Goat polyclonal anti-Lamin B (M20), rabbit polyclonal anti-RXRa (D20) and anti-Daxx (M-112) were from Santa Cruz Biotechnology. Rabbit polyclonal anti-Daxx from G. Grosveld was used for Western blot analysis. Anti SUMO-1 (mouse monoclonal anti GMP-1 antibody) and Rabbit polyclonal anti-SUMO-2/3 antibodies were from Zymed Laboratories. Rabbit polyclonal anti-RARA115 was a kind gift of Pierre Chambon. […] Fluorescence was quantified with ImageJ software.
as §2
The matrix-associated PML fraction is hypersumoylated. […]

In the case of `O[C@@H](CS)[C@@H](O)CS` [DTT], the “PML NB labelling in in situ nuclear matrix” value (PML NBs) is reported as “PML NB labelling was lost; also recorded: disrupted endogenous PML NBs” and the “lamin B staining” value (lamin B) is reported as “unaffected; also recorded: without affecting lamin-B staining”.
